The results in this text go back to ChEMBL document CHEMBL5465560, “Selectivity Literature for EUbOPEN Chemogenomic Library” (2024).

Test [1] addresses G protein-coupled receptor kinase 6 (Homo sapiens) (UniProt P43250). Description: Selectivity interaction (Kinase panel (Z-LYTE Assay)) EUB0001632a GRK6. The conditions noted are these: at 10 µM.
Test [2] has as its system Receptor-type tyrosine-protein kinase FLT3 (Homo sapiens), P36888 [UNDEFINED MUTATION]. As to the kind of experiment: Selectivity interaction (LanthaScreen Eu Kinase Binding Assay) EUB0001632a FLT3. The conditions noted are these: at 10 µM.
For test [3], the target named is RAC-gamma serine/threonine-protein kinase (Homo sapiens, UniProt Q9Y243). As to the kind of experiment: Selectivity interaction (KinomeScan (DiscoverX)) EUB0001619a AKT3. The conditions noted are these: at 1 µM.
Test [4] addresses Tyrosine-protein kinase JAK2 (Homo sapiens, UniProt O60674). Description: Selectivity interaction (ActivX KiNativ screen (ex vivo kinase selectivity in human PBMCs)) EUB0001619a JAK2. The class given is cell-based. The conditions noted are these: PBMC, at 1 µM.
Test [5] has as its target SRSF protein kinase 3 (Homo sapiens) (UniProt Q9UPE1). As to the kind of experiment: Selectivity interaction (KinomeScan (DiscoverX)) EUB0000666a SRPK3. The note with it: at 10 µM.
Test [6] deals with Serine/threonine-protein kinase 25 (Homo sapiens) (UniProt O00506). Description: Selectivity interaction (KinomeScan (DiscoverX)) EUB0000607a STK25. The note with it: at 10 µM.
Serine/threonine-protein kinase 25 (Homo sapiens), sequence (O00506 whole entry, looked up): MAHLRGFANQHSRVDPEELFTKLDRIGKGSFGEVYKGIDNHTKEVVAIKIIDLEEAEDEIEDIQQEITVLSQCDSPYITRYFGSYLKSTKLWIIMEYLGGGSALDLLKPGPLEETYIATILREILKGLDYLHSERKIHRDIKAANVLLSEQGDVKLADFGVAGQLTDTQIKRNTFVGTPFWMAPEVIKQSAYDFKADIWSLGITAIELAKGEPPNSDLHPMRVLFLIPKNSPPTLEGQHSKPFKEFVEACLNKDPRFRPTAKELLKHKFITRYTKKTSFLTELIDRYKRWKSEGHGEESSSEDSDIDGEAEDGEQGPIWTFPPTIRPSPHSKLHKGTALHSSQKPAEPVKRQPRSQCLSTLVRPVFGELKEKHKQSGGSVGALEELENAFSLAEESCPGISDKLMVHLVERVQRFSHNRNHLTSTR
The target of test [7] is T1, Mitogen-activated protein kinase 15 (Homo sapiens) (UniProt Q8TD08).
T1 sequence (whole entry): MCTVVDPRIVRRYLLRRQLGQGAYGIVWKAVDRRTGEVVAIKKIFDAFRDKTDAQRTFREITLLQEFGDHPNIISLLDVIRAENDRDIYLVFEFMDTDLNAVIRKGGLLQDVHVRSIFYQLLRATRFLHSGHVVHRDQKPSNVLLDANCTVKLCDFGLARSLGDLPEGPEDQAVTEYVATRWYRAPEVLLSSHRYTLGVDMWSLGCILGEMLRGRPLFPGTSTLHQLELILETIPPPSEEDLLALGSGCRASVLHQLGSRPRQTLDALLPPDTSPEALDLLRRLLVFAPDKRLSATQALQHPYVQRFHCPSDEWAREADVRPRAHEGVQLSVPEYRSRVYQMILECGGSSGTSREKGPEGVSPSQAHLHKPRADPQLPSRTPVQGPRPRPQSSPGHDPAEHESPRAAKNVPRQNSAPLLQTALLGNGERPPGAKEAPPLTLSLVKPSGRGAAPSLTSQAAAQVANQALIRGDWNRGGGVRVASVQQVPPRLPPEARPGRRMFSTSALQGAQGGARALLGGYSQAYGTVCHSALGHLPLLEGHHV
The conditions noted are these: at 10 µM.

Test [8] has as its target TRAF2 and NCK-interacting protein kinase (Homo sapiens) (UniProt Q9UKE5). The note with it: at 10 µM.
Test [9] relates to Mast/stem cell growth factor receptor Kit (Homo sapiens), P10721 [A829P]. The note with it: at 10 µM.
Test [10] has as its target T2, Aurora kinase A (Homo sapiens) (UniProt O14965).
T2 sequence (whole entry): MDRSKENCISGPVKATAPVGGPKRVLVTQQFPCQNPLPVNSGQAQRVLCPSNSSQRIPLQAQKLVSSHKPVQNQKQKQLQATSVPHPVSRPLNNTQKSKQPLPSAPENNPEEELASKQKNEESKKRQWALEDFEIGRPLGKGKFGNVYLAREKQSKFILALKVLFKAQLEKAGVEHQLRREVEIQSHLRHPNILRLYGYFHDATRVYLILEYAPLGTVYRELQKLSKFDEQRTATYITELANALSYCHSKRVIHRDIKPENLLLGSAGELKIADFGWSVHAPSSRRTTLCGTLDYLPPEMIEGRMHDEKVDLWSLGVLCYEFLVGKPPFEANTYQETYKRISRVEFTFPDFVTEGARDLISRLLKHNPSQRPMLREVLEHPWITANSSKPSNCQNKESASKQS
Description: Selectivity interaction (ActivX KiNativ screen (kinase selectivity in THP-1 cell lysates)) EUB0000639a STK6. It counts as subcellular. The conditions noted are these: lysate, at 1 µM.

Test [11] concerns the target T3, STE20-related kinase adapter protein alpha (Homo sapiens) (UniProt Q7RTN6).
T3 sequence (whole entry): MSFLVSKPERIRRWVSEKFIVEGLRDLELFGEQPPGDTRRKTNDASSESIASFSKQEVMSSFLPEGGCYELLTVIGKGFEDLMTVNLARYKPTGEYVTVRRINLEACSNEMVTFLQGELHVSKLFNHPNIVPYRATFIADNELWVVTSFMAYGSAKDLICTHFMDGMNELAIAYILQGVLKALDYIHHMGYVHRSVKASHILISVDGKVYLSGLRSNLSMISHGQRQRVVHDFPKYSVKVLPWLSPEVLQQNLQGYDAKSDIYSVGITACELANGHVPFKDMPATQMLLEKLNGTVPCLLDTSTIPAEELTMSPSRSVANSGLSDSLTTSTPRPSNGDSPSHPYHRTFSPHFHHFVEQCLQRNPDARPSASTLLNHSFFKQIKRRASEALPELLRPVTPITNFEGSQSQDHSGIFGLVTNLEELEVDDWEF
Description: Selectivity interaction (ActivX KiNativ screen (kinase selectivity in THP-1 cell lysates)) EUB0000639a STRADA. The class given is subcellular. The note with it: lysate, at 0.01 µM.

For test [12], the target named is Dual specificity testis-specific protein kinase 1 (Homo sapiens) (UniProt Q15569). Description: Selectivity interaction (KinomeScan (DiscoverX)) EUB0000045b TESK1.
Dual specificity testis-specific protein kinase 1 (Homo sapiens), sequence (Q15569 whole entry, looked up): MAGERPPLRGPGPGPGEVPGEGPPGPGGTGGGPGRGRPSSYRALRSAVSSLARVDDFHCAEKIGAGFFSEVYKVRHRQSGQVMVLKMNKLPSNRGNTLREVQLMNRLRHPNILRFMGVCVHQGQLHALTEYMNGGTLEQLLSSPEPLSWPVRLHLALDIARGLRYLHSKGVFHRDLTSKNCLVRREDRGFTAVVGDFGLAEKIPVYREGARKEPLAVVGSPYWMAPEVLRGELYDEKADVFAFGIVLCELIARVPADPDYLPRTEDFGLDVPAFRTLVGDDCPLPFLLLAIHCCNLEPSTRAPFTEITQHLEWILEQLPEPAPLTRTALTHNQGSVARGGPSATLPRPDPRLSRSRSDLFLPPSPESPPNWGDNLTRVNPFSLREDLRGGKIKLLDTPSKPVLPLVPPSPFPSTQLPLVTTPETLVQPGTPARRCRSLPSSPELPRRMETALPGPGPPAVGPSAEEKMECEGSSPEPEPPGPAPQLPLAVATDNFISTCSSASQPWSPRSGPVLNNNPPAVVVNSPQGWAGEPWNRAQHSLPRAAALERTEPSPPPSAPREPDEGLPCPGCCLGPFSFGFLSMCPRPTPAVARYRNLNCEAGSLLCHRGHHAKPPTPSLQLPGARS
For test [13], the target named is Tyrosine-protein kinase receptor UFO (Homo sapiens) (UniProt P30530). As to the kind of experiment: Selectivity interaction (KinomeScan (DiscoverX)) EUB0000655a AXL. The note with it: at 10 µM.
In test [14] the target is T4, Serine/threonine-protein kinase 17A (Homo sapiens) (UniProt Q9UEE5).
T4 sequence (whole entry): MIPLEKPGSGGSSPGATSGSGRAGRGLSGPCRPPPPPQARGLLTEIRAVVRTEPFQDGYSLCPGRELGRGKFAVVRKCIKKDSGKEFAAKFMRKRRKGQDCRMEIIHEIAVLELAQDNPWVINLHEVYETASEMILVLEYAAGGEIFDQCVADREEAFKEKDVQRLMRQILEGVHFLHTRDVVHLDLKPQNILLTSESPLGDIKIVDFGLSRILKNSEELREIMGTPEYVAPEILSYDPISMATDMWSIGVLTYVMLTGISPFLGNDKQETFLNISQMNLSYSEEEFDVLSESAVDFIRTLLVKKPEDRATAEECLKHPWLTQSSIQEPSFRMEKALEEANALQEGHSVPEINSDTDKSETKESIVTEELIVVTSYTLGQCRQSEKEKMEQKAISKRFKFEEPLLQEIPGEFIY
As to the kind of experiment: Selectivity interaction (Kinase panel (DSF assay)) EUB0001558a STK17A.

For test [15], the target named is Protein kinase C theta type (Homo sapiens, UniProt Q04759). As to the kind of experiment: Selectivity interaction (KinomeScan (DiscoverX)) EUB0000229b PRKCQ. The note with it: at 10 µM.
For test [16], the target named is Cyclin-dependent kinase 18 (Homo sapiens) (UniProt Q07002). Description: Selectivity interaction (KinomeScan (DiscoverX)) EUB0000229b CDK18. The note with it: at 10 µM.
Cyclin-dependent kinase 18 (Homo sapiens), sequence (Q07002 whole entry): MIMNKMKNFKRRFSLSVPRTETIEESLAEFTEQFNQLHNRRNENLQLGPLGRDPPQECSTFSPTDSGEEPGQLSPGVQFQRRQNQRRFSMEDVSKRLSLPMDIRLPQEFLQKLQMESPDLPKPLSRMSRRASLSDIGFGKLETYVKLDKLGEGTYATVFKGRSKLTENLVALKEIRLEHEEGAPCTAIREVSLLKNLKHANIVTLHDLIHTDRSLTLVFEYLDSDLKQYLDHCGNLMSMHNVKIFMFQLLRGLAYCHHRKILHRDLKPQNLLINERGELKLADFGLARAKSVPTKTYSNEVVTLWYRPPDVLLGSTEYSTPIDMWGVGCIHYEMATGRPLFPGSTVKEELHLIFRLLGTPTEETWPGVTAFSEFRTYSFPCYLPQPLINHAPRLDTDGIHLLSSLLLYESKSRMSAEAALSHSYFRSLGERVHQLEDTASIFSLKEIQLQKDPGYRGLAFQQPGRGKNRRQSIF
In test [17] the target is Serine/threonine-protein kinase SIK2 (Homo sapiens) (UniProt Q9H0K1). As to the kind of experiment: Selectivity interaction (KinomeScan (DiscoverX)) EUB0000229b SIK2. The conditions noted are these: at 10 µM.
Serine/threonine-protein kinase SIK2 (Homo sapiens), sequence (Q9H0K1 whole entry, looked up): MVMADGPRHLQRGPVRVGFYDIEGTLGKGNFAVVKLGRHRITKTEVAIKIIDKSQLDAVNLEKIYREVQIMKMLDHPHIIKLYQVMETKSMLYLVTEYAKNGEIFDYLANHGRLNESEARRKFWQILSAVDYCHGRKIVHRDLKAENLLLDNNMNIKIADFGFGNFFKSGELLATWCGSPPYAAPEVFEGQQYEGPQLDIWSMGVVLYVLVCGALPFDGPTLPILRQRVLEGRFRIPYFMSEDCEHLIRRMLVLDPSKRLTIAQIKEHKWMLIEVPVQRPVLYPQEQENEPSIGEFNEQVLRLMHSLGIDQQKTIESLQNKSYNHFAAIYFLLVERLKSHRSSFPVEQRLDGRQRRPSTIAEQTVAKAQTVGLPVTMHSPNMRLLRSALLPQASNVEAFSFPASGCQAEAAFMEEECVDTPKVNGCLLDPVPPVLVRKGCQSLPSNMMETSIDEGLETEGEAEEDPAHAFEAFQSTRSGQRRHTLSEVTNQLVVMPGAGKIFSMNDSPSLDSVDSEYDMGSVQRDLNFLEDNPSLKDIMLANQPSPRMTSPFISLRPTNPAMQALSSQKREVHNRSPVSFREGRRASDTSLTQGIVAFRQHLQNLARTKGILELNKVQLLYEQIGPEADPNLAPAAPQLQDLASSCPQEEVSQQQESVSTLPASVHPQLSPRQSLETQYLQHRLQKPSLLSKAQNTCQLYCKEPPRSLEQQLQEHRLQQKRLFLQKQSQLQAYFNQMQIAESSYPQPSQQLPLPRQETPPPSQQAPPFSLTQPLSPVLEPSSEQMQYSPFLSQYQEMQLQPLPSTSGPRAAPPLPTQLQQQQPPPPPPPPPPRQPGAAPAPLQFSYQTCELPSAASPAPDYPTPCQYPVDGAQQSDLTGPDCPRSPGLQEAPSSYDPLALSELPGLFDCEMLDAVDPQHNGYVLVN

Molecules are shown by their SMILES.

TRAF2 and NCK-interacting protein kinase (Homo sapiens), sequence (Q9UKE5 whole entry, looked up): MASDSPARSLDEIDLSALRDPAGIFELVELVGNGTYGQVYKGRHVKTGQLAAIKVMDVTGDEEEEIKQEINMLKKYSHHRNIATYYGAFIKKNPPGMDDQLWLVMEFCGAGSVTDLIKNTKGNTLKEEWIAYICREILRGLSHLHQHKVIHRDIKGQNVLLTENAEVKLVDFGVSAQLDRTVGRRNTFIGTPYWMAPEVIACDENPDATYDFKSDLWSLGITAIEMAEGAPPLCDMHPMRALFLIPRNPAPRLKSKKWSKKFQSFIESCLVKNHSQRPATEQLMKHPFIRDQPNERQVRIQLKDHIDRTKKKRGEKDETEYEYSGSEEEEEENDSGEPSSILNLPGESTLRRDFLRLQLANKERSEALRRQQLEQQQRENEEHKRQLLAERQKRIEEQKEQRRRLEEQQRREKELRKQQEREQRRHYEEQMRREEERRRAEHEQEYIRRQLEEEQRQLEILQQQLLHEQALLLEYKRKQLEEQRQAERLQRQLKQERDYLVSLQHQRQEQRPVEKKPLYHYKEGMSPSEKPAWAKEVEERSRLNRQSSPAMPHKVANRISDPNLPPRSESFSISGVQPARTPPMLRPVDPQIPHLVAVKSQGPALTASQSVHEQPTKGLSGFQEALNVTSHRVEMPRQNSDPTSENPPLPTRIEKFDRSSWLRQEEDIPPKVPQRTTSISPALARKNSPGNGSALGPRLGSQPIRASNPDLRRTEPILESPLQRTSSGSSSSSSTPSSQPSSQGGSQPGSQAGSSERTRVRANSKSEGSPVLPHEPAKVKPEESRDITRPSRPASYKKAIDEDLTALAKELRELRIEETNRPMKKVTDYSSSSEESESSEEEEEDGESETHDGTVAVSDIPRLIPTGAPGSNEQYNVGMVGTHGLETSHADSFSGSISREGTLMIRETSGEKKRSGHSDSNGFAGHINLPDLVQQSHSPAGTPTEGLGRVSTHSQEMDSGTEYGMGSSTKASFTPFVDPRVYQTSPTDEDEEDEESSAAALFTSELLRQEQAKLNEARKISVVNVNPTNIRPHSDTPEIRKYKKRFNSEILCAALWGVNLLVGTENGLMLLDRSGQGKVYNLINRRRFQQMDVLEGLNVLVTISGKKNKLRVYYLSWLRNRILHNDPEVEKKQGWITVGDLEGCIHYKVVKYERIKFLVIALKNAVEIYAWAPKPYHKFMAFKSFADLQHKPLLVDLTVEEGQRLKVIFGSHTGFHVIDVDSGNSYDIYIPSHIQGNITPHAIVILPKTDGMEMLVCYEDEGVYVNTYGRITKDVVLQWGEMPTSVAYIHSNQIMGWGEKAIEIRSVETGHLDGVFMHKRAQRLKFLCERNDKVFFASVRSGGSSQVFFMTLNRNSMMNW
Tyrosine-protein kinase JAK2, sequence (O60674 whole entry): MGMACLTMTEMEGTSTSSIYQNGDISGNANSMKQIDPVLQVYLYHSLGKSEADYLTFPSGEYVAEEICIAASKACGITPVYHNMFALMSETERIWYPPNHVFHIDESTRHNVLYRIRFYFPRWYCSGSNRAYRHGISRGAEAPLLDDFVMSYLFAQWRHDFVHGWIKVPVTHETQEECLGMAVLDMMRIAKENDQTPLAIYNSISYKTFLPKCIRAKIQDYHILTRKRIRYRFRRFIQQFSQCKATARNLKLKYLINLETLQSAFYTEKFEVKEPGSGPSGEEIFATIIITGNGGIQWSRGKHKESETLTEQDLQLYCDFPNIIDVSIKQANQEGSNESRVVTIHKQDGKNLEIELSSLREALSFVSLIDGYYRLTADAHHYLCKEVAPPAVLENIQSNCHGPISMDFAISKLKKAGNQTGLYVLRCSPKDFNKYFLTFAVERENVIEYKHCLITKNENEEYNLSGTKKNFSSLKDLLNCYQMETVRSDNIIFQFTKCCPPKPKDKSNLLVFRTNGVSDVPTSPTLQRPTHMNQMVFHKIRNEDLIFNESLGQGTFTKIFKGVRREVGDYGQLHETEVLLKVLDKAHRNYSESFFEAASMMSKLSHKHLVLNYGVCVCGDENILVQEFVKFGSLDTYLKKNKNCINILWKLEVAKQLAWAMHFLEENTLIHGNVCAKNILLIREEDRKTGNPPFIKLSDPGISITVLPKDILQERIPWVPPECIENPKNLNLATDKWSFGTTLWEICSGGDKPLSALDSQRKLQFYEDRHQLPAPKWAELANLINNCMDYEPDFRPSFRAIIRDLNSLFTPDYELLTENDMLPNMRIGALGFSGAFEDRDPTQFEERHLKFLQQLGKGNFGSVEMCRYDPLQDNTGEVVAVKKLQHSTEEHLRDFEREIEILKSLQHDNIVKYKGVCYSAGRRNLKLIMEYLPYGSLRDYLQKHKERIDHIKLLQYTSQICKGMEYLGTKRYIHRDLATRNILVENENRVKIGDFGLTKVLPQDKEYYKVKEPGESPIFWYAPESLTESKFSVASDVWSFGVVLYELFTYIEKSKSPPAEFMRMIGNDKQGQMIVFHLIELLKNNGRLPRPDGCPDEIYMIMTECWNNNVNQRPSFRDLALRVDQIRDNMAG

Consider `Cn1cc(-n2cnc3c(NCc4nc5cc(Cl)c(Cl)cc5[nH]4)nc(N4CCOCC4)nc32)cn1`, for which, in [1], the % of control is -1.29%. In addition, the % of inhibition in [2] was -1.89%.
`N#Cc1cccc(-c2c[nH]c3ncnc(N4CCOCC4)c23)c1`: the % of control in test [3] was determined as 100%. The % of inhibition in test [4] amounted to 17%.
For the molecule `O=C(NOC[C@H](O)CO)c1ccc(F)c(F)c1Nc1ccc(I)cc1F`, the % of control in test [5] was 100%.
As for `CNC(=O)Nc1ccc(-c2nc(N3CC4CCC(C3)O4)c3cnn(C4CCC5(CC4)OCCO5)c3n2)cc1`, the % of control in [6] was found to be 91%.
Turning to `Cc1cc([C@@H](C)Nc2ccccc2C(=O)O)c2nc(N3CCOCC3)cc(=O)n2c1` [AZD-6482], the % of control in test [7] came to 100%; in test [8] it was 98%; in test [9], 100%.
Take `CC[C@@H]1[C@H](F)C(=O)N[C@@H]1COc1nccc2cc(C(N)=O)c(OC)cc12` [ZIMLOVISERTIB]: the % of inhibition was 17.4% in [10] and -6.5% in [11].
Regarding `C=CC(=O)Nc1cc(-n2c(=O)ccc3cnc4ccc(-c5ccc(NS(C)(=O)=O)cc5)cc4c32)ccc1C`, the % of control in test [12] (at 1 µM) was determined as 94%; in test [12] (at 10 µM) it was 98%.
`CN(C)CCOc1ccc(-c2nc(-c3ccncc3)c(-c3ccc4c(c3)CC/C4=N\O)[nH]2)cc1`: the % of control in test [13] turned out to be 78%.
The molecule `CC(C)(O)[C@H](F)CN1Cc2cc(NC(=O)c3cnn4cccnc34)c(N3CCOCC3)cc2C1=O` registered a dTM in test [14] of 0.9 K.
For `COc1cc(N(C)c2ccnc3ccc(C(F)(F)F)cc23)cc(OC)c1OC`, the % binding was determined as 66% in test [15], 91% in test [16] and 98% in test [17].
